This data set concerns B16 F0 murine melanoma. Briefly: Biodistribution study by planar scintigraphic imaging (gamma camera), tumour uptake quantification. Type of data set: in vivo, C57BL6 male mice. The note with it: i.v. The procedure: Tumour Implantation. For transplantation, cells grown in monolayer culture to confluence were trypsinized and washed with phosphate buffer saline (PBS). They were resuspended in PBS and each mouse received 0.1 mL subcutaneously (3×10^5 cells) on the left flank in order to allow a tumour growth on the body side. Ten days later, the tumours became palpable with a percentage of tumour take of 98-100%.
The in vivo biodistribution and kinetic profile of each radiolabelled (iodine-125) compound have been studied in C57BL6 male mice bearing the B16 F0 murine melanoma by repeated planar scintigraphic imaging which allows the tumour uptake follow-up in the same animal.
Gamma Camera. In vivo radionuclide imaging was performed using a γ IMAGER (Biospace Mesures, Paris, France) especially dedicated for small animal, a scintigraphic camera with a continuous 4 mm thick×120 mm diameter CsI(Na) crystal, a position-sensitive Hamamatsu R3292 photomultiplier and a 10 cm field of view.
Imaging Protocol. On day 14 after tumour implantation (tumour weight 0.25±0.10 g) each [^125I]-radioiodinated compound was administered intravenously via a tail vein (0.1 μmol, range 3.7 to 7 MBq/animal) in three mice for each compound. At different times after administration (1, 3, 6, 24, 72 hours, 5, 7, 10 and 15 days), mice were anesthetized with 0.2 mL, for a 20 g mouse, of a ketamine-xylazine mixture in saline (1-0.25 mL for 5 mL) by i. p. administration, and repeated planar scintigraphic whole body imaging (mouse laying in anterior position on the camera field) were performed by an acquisition time of 10 min. For this study, the camera was equipped with a 1.8/0.2/20 collimator (hole diameter/septum thickness/height in mm).
Tumoural Radioactivity Quantification Approach. The injected activity to each mouse was determined from scintigraphic imaging of the syringe before and after the injection using the γ-IMAGER.
Regions of interest (ROIs) were delineated over the whole body image: whole body uptake area (or the various fixing areas, eyes, thyroid and abdomen) and one for the tumour uptake area. In the various ROIs, the activity (cpm) was quantified using the Biospace measures γ VISION+software. These values were normalized to the injected dose. For the tumour, the activity was also normalized to the tumour weight. Firstly, the volume was calculated from the two dimensions caliper measurement (Bissery, M. C.; Guenard, D.; Gueritte-Voegelin, F.; Lavelle, F. Experimental antitumour activity of taxotere (RP 56976, NSC 628503) a taxol analogue. Cancer res. 1991, 51, 4845-4852). Secondly, the weight was determined from the volume value corrected by a factor determined from a large panel of experiments (Weight g=volume mm^3×0.6). The data were expressed as % ID/g of B 16F0 melanoma tumour.

Counter-ions that a name gives are not always drawn.

For the compound `CCN(CCNC(=O)c1ccc2cncc([125I])c2n1)CCOc1cccnc1F.Cl.Cl` [[^125I]74], the “Radioactive concentration in tumour (tumoural uptake)” value (“Radioactive concentration in tumour” for short) came to 5.6 ± 1.7 % ID/g (1 H post injection); 5.5 ± 2.4 % ID/g (3 H post injection); 5.3 ± 2.4 % ID/g (6 H post injection); 5.2 ± 2.0 % ID/g (24 H post injection); 3.3 ± 2.0 % ID/g (72 H post injection); 1.6 ± 0.7 % ID/g (120 H post injection). Also, the “Radioactive concentration in tumour” value stood at 1.1 ± 0.5 % ID/g (168 H post injection), 0.5 ± 0.3 % ID/g (240 H post injection) and 0.4 ± 0.3 % ID/g (360 H (15 days) post injection).

Turning to `CCN(C/C=C/CF)CCNC(=O)c1cnc2cc([125I])ccc2n1.Cl.Cl` [[^125I]57], the “Radioactive concentration in tumour” value by setting is: (1 H post injection) 10.8 ± 2.3 % ID/g; (3 H post injection) 12.3 ± 2.8 % ID/g; (6 H post injection) 13.9 ± 1.3 % ID/g; (24 H post injection) 15.0 ± 0.5 % ID/g; (72 H post injection) 10.0 ± 0.9 % ID/g; (120 H post injection) 5.6 ± 1.0 % ID/g. Moreover, the “Radioactive concentration in tumour” value was 3.3 ± 0.6 % ID/g (168 H post injection), 1.9 ± 0.3 % ID/g (240 H post injection) and 1.3 ± 0.6 % ID/g (360 H (15 days) post injection).

On to `CCN(CCNC(=O)c1cnc2cc([125I])ccc2n1)Cc1ccnc(F)c1.Cl.Cl` [[^125I]34], for which the “Radioactive concentration in tumour” value (1 H post injection) is reported as 10.3 ± 6.6 % ID/g; the “Radioactive concentration in tumour” value (3 H post injection) is 12.0 ± 4.8 % ID/g; the “Radioactive concentration in tumour” value (6 H post injection) amounted to 15.4 ± 6.7 % ID/g; the “Radioactive concentration in tumour” value (24 H post injection) is on record as 16.0 ± 7.4 % ID/g; the “Radioactive concentration in tumour” value (72 H post injection) is recorded as 10.0 ± 2.6 % ID/g; the “Radioactive concentration in tumour” value (120 H post injection) was found to be 7.1 ± 1.8 % ID/g. Further, the “Radioactive concentration in tumour” value (240 H post injection) worked out at 1.9 ± 0.9 % ID/g and the “Radioactive concentration in tumour” value (360 H (15 days) post injection) amounted to 0.8 ± 0.5 % ID/g.

For the compound `CCN(CCNC(=O)c1cccc2nc3cc([125I])ccc3nc12)CCOc1cccnc1F.Cl.Cl` [[^125I]85], the “Radioactive concentration in tumour” value (1 H post injection) worked out at 11.4 ± 1.7 % ID/g; the “Radioactive concentration in tumour” value (3 H post injection) turned out to be 12.3 ± 1.7 % ID/g; the “Radioactive concentration in tumour” value (6 H post injection) is 13.8 ± 2.5 % ID/g; the “Radioactive concentration in tumour” value (24 H post injection) is listed as 13.8 ± 2.3 % ID/g; the “Radioactive concentration in tumour” value (72 H post injection) turned out to be 5.8 ± 0.2 % ID/g; the “Radioactive concentration in tumour” value (120 H post injection) was 3.7 ± 0.6 % ID/g. Further, the “Radioactive concentration in tumour” value (168 H post injection) worked out at 2.0 ± 0.9 % ID/g, the “Radioactive concentration in tumour” value (240 H post injection) is 1.2 ± 0.5 % ID/g and the “Radioactive concentration in tumour” value (360 H (15 days) post injection) was found to be 0.7 ± 0.4 % ID/g.

For the compound `CCN(CCNC(=O)c1cnc2cc([125I])ccc2n1)CCc1ccnc(F)c1.Cl.Cl` [[^125I]47], the “Radioactive concentration in tumour” value runs as follows: (1 H post injection) 12.1 ± 4.1 % ID/g; (3 H post injection) 13.3 ± 6.0 % ID/g; (6 H post injection) 14.5 ± 6.6 % ID/g; (24 H post injection) 11.2 ± 2.5 % ID/g; (72 H post injection) 7.7 ± 0.9 % ID/g; (120 H post injection) 5.2 ± 1.7 % ID/g. In addition, the “Radioactive concentration in tumour” value was 3.0 ± 1.0 % ID/g (168 H post injection), 1.6 ± 0.5 % ID/g (240 H post injection) and 1.1 ± 0.3 % ID/g (360 H (15 days) post injection).

Turning to `CCN(CC)Cc1ccnc(F)c1CNC(=O)c1cnc2cc([125I])ccc2n1.Cl.Cl` [[^125I]92], the “Radioactive concentration in tumour” value runs as follows: (1 H post injection) 5.6 ± 2.0 % ID/g; (3 H post injection) 6.5 ± 3.2 % ID/g; (6 H post injection) 6.7 ± 1.9 % ID/g; (24 H post injection) 6.4 ± 1.8 % ID/g; (72 H post injection) 4.1 ± 1.5 % ID/g; (120 H post injection) 2.4 ± 0.7 % ID/g. The “Radioactive concentration in tumour” value by setting is: (168 H post injection) 1.5 ± 0.4 % ID/g; (240 H post injection) 0.8 ± 0.3 % ID/g; (360 H (15 days) post injection) 0.7 ± 0.1 % ID/g.

In the case of `CCN(CCCc1ccnc(F)c1)CCNC(=O)c1cnc2cc([125I])ccc2n1.Cl.Cl` [[^125I]53], the “Radioactive concentration in tumour” value is listed as 9.1 ± 1.8 % ID/g (1 H post injection); 9.3 ± 0.6 % ID/g (3 H post injection); 14.1 ± 3.9 % ID/g (6 H post injection); 16.3 ± 8.9 % ID/g (24 H post injection); 9.5 ± 5.9 % ID/g (72 H post injection); 5.1 ± 3.3 % ID/g (120 H post injection). In addition, the “Radioactive concentration in tumour” value was determined as 2.5 ± 2.1 % ID/g (168 H post injection), 1.4 ± 1.0 % ID/g (240 H post injection) and 0.7 ± 0.5 % ID/g (360 H (15 days) post injection).

For the compound `CCN(CCNC(=O)c1ccnc(F)c1)CCNC(=O)c1cnc2cc([125I])ccc2n1.Cl.Cl` [[^125I]40], the “Radioactive concentration in tumour” value is, setting by setting: (1 H post injection) 9.6 ± 0.7 % ID/g; (3 H post injection) 8.8 ± 1.6 % ID/g; (6 H post injection) 12.1 ± 3.2 % ID/g; (24 H post injection) 12.1 ± 4.6 % ID/g; (72 H post injection) 9.6 ± 7.1 % ID/g; (120 H post injection) 5.1 ± 3.3 % ID/g.

Regarding `CCN(CCNC(=O)c1cnc2cc([125I])ccc2n1)CCNc1cccc(F)n1` [[^125I]17, [^125I]N-[2-[N-ethyl-N-[2-[(6-fluoropyridin-2-yl)amino]ethyl]amino]ethyl]-6-iodoquinoxaline-2-carboxamide dihydrochloride salt], the “Radioactive concentration in tumour” value runs as follows: (1 H post injection) 13.1 ± 6.8 % ID/g; (3 H post injection) 13.7 ± 6.1 % ID/g; (6 H post injection) 12.5 ± 3.9 % ID/g; (24 H post injection) 8.6 ± 0.9 % ID/g; (72 H post injection) 5.7 ± 1.5 % ID/g; (120 H post injection) 2.6 ± 0.4 % ID/g. For the same compound, the “Radioactive concentration in tumour” value is, setting by setting: (168 H post injection) 1.5 ± 0.2 % ID/g; (240 H post injection) 0.8 ± 0.1 % ID/g; (360 H (15 days) post injection) 0.4 ± 0.2 % ID/g.

As to `CCN(CCF)CCNC(=O)c1cnc2cc([125I])ccc2n1` [[^125I]26, [^125I]N-[2-[[N-ethyl-N-(2-fluoroethyl)]amino]ethyl]-6-iodoquinoxaline-2-carboxamide dihydrochloride salt], the “Radioactive concentration in tumour” value (1 H post injection) amounted to 21.4 ± 4.9 % ID/g; the “Radioactive concentration in tumour” value (6 H post injection) came out at 25.0 ± 8.0 % ID/g; the “Radioactive concentration in tumour” value (24 H post injection) was determined as 24.8 ± 6.5 % ID/g; the “Radioactive concentration in tumour” value (120 H post injection) came to 8.4 % ID/g; the “Radioactive concentration in tumour” value (240 H post injection) stood at 1.6 % ID/g; the “Radioactive concentration in tumour” value (360 H (15 days) post injection) is given as 0.6 % ID/g.

As to `CCN(CC)CCNC(=O)c1cc(F)c2cc([125I])ccc2n1` [[^125I]106, [^125I]N-[2-(diethylamino)ethyl]-4-fluoro-6-iodoquinoline-2-carboxamide], the “Radioactive concentration in tumour” value by setting is: (1 H post injection) 6.0 ± 1.3 % ID/g; (3 H post injection) 8.0 ± 0.9 % ID/g; (6 H post injection) 9.5 ± 1.8 % ID/g; (24 H post injection) 8.4 ± 0.8 % ID/g; (72 H post injection) 4.9 ± 1.2 % ID/g; (120 H post injection) 3.0 ± 0.1 % ID/g. Also, the “Radioactive concentration in tumour” value runs as follows: (168 H post injection) 2.3 ± 0.6 % ID/g; (240 H post injection) 1.5 ± 0.1 % ID/g; (360 H (15 days) post injection) 0.7 ± 0.1 % ID/g.

(Values after patent US9125937B2, “Labelled analogues of halobenzamides as multimodal radiopharmaceuticals and their precursors” (INSTITUT NATIONAL DE LA SANTE ET DE LA RECHERCHE MEDICALE …, priority 2008, dated 2015).)
